According to ChEMBL document CHEMBL5579878, “Allosteric Activation of Protein Phosphatase 5 with Small Molecules” (J Med Chem, 2024):
Where a chain is given by its changes, count along the chain named. Activity calls are given as the source filed them. The rule behind the calls is not given here.

Assays:
[1] = target: T1, Serine/threonine-protein phosphatase 5 (Homo sapiens, UniProt P53041); assay: Activation of His-tagged human PP5 extracted from Escherichia coli BL21 using pNPP as substrate assessed as increase in phosphatase activity incubated for 30 mins by spectrophotometric analysis
T1 sequence (P53041 whole entry): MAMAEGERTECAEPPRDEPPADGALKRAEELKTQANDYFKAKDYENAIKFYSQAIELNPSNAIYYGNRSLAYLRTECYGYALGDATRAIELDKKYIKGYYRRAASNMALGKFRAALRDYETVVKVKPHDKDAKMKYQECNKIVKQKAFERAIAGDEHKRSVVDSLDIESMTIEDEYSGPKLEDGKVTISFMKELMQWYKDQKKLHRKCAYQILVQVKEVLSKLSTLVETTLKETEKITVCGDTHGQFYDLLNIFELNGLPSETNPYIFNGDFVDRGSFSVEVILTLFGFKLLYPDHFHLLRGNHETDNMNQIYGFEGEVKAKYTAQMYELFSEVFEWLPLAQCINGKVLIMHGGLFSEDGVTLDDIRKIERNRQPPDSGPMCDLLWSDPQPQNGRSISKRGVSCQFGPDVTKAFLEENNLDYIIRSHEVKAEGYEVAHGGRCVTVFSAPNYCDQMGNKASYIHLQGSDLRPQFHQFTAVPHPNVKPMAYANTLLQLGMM

[2] = target: T1, Serine/threonine-protein phosphatase 5; assay: Binding affinity to full length His-tagged human PP5 extracted from Escherichia coli BL21 assessed as dissociation constant by ITC analysis
[3] = target: T2, Serine/threonine-protein phosphatase 5 (Homo sapiens) (UniProt P53041); assay: Binding affinity to His-tagged human PP5 TPR domain extracted from Escherichia coli BL21 by ITC analysis
T2 sequence (whole entry): T1 sequence (P53041 whole entry)

[4] = Toxicity in BALB/c nude mouse xenografted with human HCT-116 cells assessed as body weight loss at 30 to 60 mg/kg, ip administered every other day for 14 days in presence of AT13387; format: organism-based; conditions: in vivo, 336 h, dose 30-60 mg/kg, time 14 day
HCT-116 [5] = assay: Downregulation of AT13387-induced HSP70 expression in human HCT-116 cells at 50 uM incubated for 24 hrs by Western blot analysis; format: functional, cell-based
SW-620 = assay: Enhancement of HSP90 inhibitor AT13387-induced antiproliferative activity against human SW620 cells assessed as fold change in HSP90 inhibitor AT13387 IC50 at 50 uM incubated for 72 hrs by CCK8 assay; format: functional
HCT-116 [6] = assay: Downregulation of AT13387-induced HSP27 expression in human HCT-116 cells at 50 uM incubated for 24 hrs by Western blot analysis; format: functional, cell-based
[7] = Toxicity in BALB/c nude mouse xenografted with human HCT-116 cells assessed as body weight loss at 60 mg/kg, ip administered every other day for 14 days; format: organism-based; conditions: in vivo, 336 h, time 14 day
HCT-116 [8] = assay: Antitumor activity against human HCT-116 cells xenografted in BALB/c nude mouse assessed as decrease in AT13387-induced HSP40 protein expression in tumor at 30 to 60 mg/kg, ip administered every other day for 14 days by Western blot analysis; format: functional, organism-based; conditions: dose 30-60 mg/kg, time 14.0 day
HCT-116 [9] = assay: Effect on HSP40 expression level in human HCT-116 cells at 1 to 100 uM incubated for 24 hrs by Western blot analysis; format: functional, cell-based; conditions: dose 1-100 µM
[10] = system: T3, Serine/threonine-protein phosphatase 5 (Homo sapiens), P53041 [E428A]; assay: Activation of PP5 E428A mutant (unknown origin) using pNPP as substrate assessed as increase in phosphatase activity at 10 to 200 uM incubated for 30 mins by spectrophotometric analysis; conditions: dose 10-200 µM
T3 sequence (whole entry): T1 sequence (P53041 whole entry) with E428A

[11] = target: T2, Serine/threonine-protein phosphatase 5 (Homo sapiens); assay: Binding affinity to His-tagged human PP5 extracted from Escherichia coli BL21 at 200 uM by STD-NMR analysis; conditions: filed as activator
[12] = target: Serine/threonine-protein phosphatase PP1-alpha catalytic subunit (Homo sapiens) (UniProt P62136); assay: Inhibition of PP1A (unknown origin) using DiFMUP as substrate at 0.01 to 1000 uM; conditions: dose 0.01-1000 µM
[13] = target: T4, Tyrosine-protein phosphatase non-receptor type 11 (Homo sapiens) (UniProt Q06124); assay: Inhibition of SHP2 (unknown origin) using DiFMUP as substrate at 0.01 to 1000 uM; conditions: dose 0.01-1000 µM
T4 sequence (whole entry): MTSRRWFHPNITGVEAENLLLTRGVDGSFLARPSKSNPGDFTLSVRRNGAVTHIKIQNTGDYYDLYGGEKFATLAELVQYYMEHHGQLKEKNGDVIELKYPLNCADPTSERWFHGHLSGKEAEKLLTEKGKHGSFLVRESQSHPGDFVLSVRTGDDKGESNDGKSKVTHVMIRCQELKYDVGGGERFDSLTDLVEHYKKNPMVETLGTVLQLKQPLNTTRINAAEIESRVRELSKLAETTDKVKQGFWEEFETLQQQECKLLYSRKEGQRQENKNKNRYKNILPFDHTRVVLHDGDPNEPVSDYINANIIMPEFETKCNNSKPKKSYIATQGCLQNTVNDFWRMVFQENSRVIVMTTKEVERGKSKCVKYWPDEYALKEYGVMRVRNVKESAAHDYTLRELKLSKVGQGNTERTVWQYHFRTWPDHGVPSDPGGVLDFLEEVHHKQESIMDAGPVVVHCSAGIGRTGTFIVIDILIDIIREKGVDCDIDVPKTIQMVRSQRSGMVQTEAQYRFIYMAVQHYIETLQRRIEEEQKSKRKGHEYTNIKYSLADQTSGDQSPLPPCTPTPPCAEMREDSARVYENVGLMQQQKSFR

[14] = AUC (0 to t) in Sprague-Dawley rat at 10 mg/kg, ip measured after 8 hrs by LC-MS/MS analysis; format: ADME, organism-based; conditions: in vivo
HCT-116 [15] = assay: Downregulation of AT13387-induced HSP70 expression in PP5 Knockout human HCT-116 cells at 50 uM incubated for 24 hrs by Western blot analysis; format: functional, cell-based
[16] = system: T3, Serine/threonine-protein phosphatase 5 (Homo sapiens), P53041 [E428A]; assay: Binding affinity to PP5 E428A mutant (unknown origin) by ITC analysis

Sequence of Serine/threonine-protein phosphatase PP1-alpha catalytic subunit (Homo sapiens) (P62136 whole entry): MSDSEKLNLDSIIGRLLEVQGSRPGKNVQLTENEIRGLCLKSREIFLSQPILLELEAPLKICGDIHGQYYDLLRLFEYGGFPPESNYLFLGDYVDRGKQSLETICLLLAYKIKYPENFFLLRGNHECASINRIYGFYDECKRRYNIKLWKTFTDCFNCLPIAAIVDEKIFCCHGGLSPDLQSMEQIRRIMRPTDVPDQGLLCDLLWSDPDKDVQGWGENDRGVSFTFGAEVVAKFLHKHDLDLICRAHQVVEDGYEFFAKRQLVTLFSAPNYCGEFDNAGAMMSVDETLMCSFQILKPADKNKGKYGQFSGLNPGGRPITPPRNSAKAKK

EC50 [1]: 52.8 µM
Kd [2]: 1.14 µM
Activity [3]: inactive
Activity [10]: inactive
Activity [11]: Active
inhibition [12]: inactive
inhibition [13]: inactive
AUC(0-t) at 8 h [14]: 111 ng·h/mL
Activity [16]: inactive
SMILES: N=c1oc2cc(F)cc(F)c2cc1C(N)=S
Activity [4]: Non-Toxic
Activity (HCT-116 [5]): Active
fold change (FC) (SW-620): 2
Activity (HCT-116 [6]): Active
Activity [7]: Non-Toxic
Activity (HCT-116 [8]): Active
Activity (HCT-116 [9]): inactive
Activity (HCT-116 [15]): inactive
